Results on two substances are retold here after patent US4975531A, “Sakyomicin E and the derivatives thereof, a process for the preparation thereof and the use thereof” (Behringwerke Aktiengesellschaft, priority 1988, dated 1990).

The subject of one data set is L1210 cells. Description: Proliferation test (MTT assay), L1210. In kind it is cell-based, murine. Particulars: 72 hours. Here is the method: (§1) The cytotoxic activity of the compounds according to the invention was measured in two different in vitro test systems.
(§2) 1. Proliferation test (MTT assay)
(§3) In this test system, the number of live or dead cells after incubation with the test substance for 3 days is measured by means of the NADP-dependent reduction of a colorless substrate to give a deep red-colored final product, which occurs only in live cells.
(§4) Control experiments contain merely growth medium in place of the test substance. Quadruplicate determinations were set up for each test substance and for the controls. After incubation for 65 hours, 50 μl of an MTT solution (2.5 mg/ml in phosphate buffered saline) are added. In the presence of live cells MTT is reduced to a dark-red insoluble formazan pigment. […] The insoluble pigment is dissolved by addition of 100 μl of DMSO, and the extinction of the solution produced in this way is subsequently measured for each well in a Multiscan photometer 340 CC from Flow at a wavelength of 492 nm.
(In general: Formazan colour is commonly taken as a measure of viable cells.)

The test system of a further data set is A 549 cells. As to the kind of experiment: Proliferation test (MTT assay), A 549. In kind it is cell-based, human. Particulars: A 549, MTT, 72 hours. Here is the method: as §1, §2, §3, §4
The next data set deals with HT 29 cells. Description: Proliferation test (MTT assay), HT 29. It counts as cell-based, human. Particulars: HT 29, MTT, 72 hours. Here is the method:
as §1, §2, §3, §4

Another data set deals with tumor cell colonies. Description: Stem Cell Test (inhibition of tumor cell colony formation in soft agar). In kind it is cell-based. Particulars: cell line not given; for IC50 Cont. incubation (colony formation in soft agar): continuous incubation. Here is the method: as §1
This test system examines the ability of the test substance to inhibit the formation of tumor cell colonies in soft agar. The test was carried out by the method described by Hamburger and Salmon, with the modifications described below. Conditioned medium was replaced by McCoy 5A medium. […] The cells were incubated with various concentrations of the test substance at 37° C. for 1 hour. The cells were then washed twice with McCoy 5A medium and then plated out as the upper layer in a two-layer agar system in accordance with the Hamburger and Salmon method. Additional parallel experiments were carried out using a continuous incubation time, in which case various concentrations of the test substance were mixed with the upper agar layer before plating out the cells.
After this time, colonies with a diameter of (greater than) 60 μm were counted using an image analysis system (FAS II, Bausch and Lomb).
The IC50 for continuous and one-hour incubation was determined from the dose-effect plot (Tab. 2).

The subject of the next data set is E. coli. As to the kind of experiment: antibacterial effect in vitro, agar plate diffusion test, E. coli. In kind it is cell-based. Particulars: agar plate diffusion test (10 μl/test disk 6 mm in diameter). The procedure:
(§5) Examples of various organisms which emerge as sensitive to an inhibitory concentration of greater than 10 μg/ml are: E. coli, Staph. aureus, Strep. faecalis.

Another data set relates to Staph. aureus. As to the kind of experiment: antibacterial effect in vitro, agar plate diffusion test, Staph. aureus. Particulars: agar plate diffusion test (10 μl/test disk 6 mm in diameter). In kind it is cell-based. Here is the method:
as §5

The subject of a further data set is Strep. faecalis. Description: antibacterial effect in vitro, agar plate diffusion test, Strep. faecalis. It counts as cell-based. Particulars: agar plate diffusion test (10 μl/test disk 6 mm in diameter). The procedure: as §5
Data set [1] has as its system Gram-positive and Gram-negative bacteria. As to the kind of experiment: antibacterial effect in vitro against Gram-positive and Gram-negative bacteria, agar plate diffusion test. It counts as cell-based. The procedure:
as §5

Data set [2] concerns human and animal tumor cells. As to the kind of experiment: tumor-inhibiting effect in vitro. It counts as cell-based.
The nature of a further data set: solubility. It counts as physicochemical.
A short description of another data set: stability. It counts as physicochemical.

Turning to 2,8,4'-tri-O-acetylsakyomicin E, the “IC50 L1210 (concentration which just kills 50% of the cells)” value with L1210 cells was determined as 0.29 µg/mL. For the same substance, the “IC50 A 549 (concentration which just kills 50% of the cells)” value in the data set with A 549 cells worked out at 0.37 µg/mL. Also, the “IC50 HT 29 (concentration which just kills 50% of the cells)” value with HT 29 cells stood at 0.11 µg/mL. In the data set on tumor cell colonies, the “IC50 1 h incubation (colony formation in soft agar)” value is given as “above 1.0 μg/ml” and the “IC50 Cont. incubation (colony formation in soft agar)” value was found to be 0.30 µg/mL.

As to sakyomicin E, the “IC50 L1210 (concentration which just kills 50% of the cells)” value in the data set on L1210 cells is 0.50 µg/mL. In addition, the “IC50 A 549 (concentration which just kills 50% of the cells)” value in the data set on A 549 cells amounted to 0.30 µg/mL. The “IC50 HT 29 (concentration which just kills 50% of the cells)” value in the data set with HT 29 cells stood at 0.08 µg/mL. Further, in the data set with tumor cell colonies, the “IC50 1 h incubation (colony formation in soft agar)” value was 3.0 µg/mL and the “IC50 Cont. incubation (colony formation in soft agar)” value was determined as 0.24 µg/mL. The “inhibitory concentration, E. coli” value in the data set with E. coli is recorded as “greater than 10 μg/ml”. For the same substance, the “inhibitory concentration, Staph. aureus” value in the data set on Staph. aureus was “greater than 10 μg/ml”. In addition, the “inhibitory concentration, Strep. faecalis” value in the data set on Strep. faecalis is given as “greater than 10 μg/ml”. The “antibacterial effect against Gram-positive and Gram-negative bacteria” value in data set [1] was “exhibits an antibacterial effect”. Moreover, in data set [2], the “tumor-inhibiting effect in vitro” value is on record as “tumor-inhibiting effect”. In addition, the solubility in alkanes result in “solubility” (alkanes) is “insoluble or only very slightly soluble”. The “solubility in ethyl acetate, methanol, acetone, DMSO and chloroform” value in the data set “solubility” (ethyl acetate, methanol, acetone, DMSO and chloroform) is given as “readily soluble”. The stability in solution entry in “stability” (in solution in the pH range from 3 to 9, especially from 5 to 8) is listed as “stable”. Moreover, the “stability in the solid state” value in the data set “stability” (solid state) is recorded as “stable”.
